Results taken from patent US8673882B2, “Inhibitors of autotaxin” (University of Tennessee Research Foundation, priority 2011, dated 2014).

Key:
[1] = tested on: MM1 hepatocarcinoma cells; assay: Invasion of mesothelial cell monolayer by MM1 cells; assay type: cell-based, rat
From the text: (§1) Cancer metastasis is a complex process that cannon be accurately modeled in vitro. Models that utilize cellular monolayers for the invasion of carcinoma cell come the closest to the situation in vivo. Two different cell monolayers, mouse mesothelium and human vascular endothelium were used to examine the role of ATX in the invasion of MM1 hepatocarcinoma cells and the reduction of such invasion by the chemical compounds of the present application. The mesothelial monolayer is an accepted model for invasion of body cavities lined by serous cells whereas, the HUVEC monolayer is considered to be an in vitro model of hematogenous invasion of carcinomas.
(§2) Highly invasive MM1 cells originally isolated from the AH130 rat hepatoma cells were utilized in these studies. The cells were grown in suspension in DMEM supplemented with 10% fetal bovine serum, 2 mM glutamine, 100 units/ml penicillin and 10 μg/ml streptoinycin. Mesothelial cells were isolated and cultured from C57BL/6 mice. Human umbilical cord vascular endothelial cells (HUVEC) were obtained from VEC Technologies Inc., (Rensselaer, N.Y., USA) and were grown in MCDB-131 complete medium containing 10% fetal bovine serum. 90 μg/ml heparin, 10 ng/ml EGF, 1 μg/ml hydrocortisone, 0.2 mg/ml EndoGrowth supplement, 100 units/ml penicillin G, 100 μg/ml streptomycin and 25 μg/ml amphotericin B (all from VEC Technologies). Tumor cell invasion was performed by seeding 1.3×10^5 HUVECs (passage 7) into each well of a 12-well plate pre-coated with 0.2% gelatin (Sigma) and cultured for 2 days to form a confluent monolayer. Mesothelial cells harvested from two-three mice were initially plated in 6-well plates and grown to confluency in DMEM medium supplemented with 10% fetal bovine serum in the presence of 100 units/ml penicillin G and 10 μg/ml streptomycin. When confluent, the mesothelial cells were split into three equal aliquots (˜5×10^4 cells each) and plated to three wells of a 12-well plate and grown to confluence.
Invasion of MM1 cells of Example 53 was determined and the effect of compounds of the present application in reducing the invasion was determined. For all invasion assays, MM1 cells were pre-stained with 2 μg/ml calcein AM (Invitrogen, USA) for 2 h, rinsed once, and seeded at a density of 5×10^4 cells/well over the monolayers. […] The number of tumor cells that penetrated the monolayer was photographed under a NIKON TiU inverted microscope using phase-contrast and fluorescence illumination in a minimum of five non-overlapping fields at 100× magnification. The fluorescent images were overlayed on top of the phase contrast images using the Elements BR software (version 3.1x) and the invaded MM1 cells showing the characteristic flattened morphology in the plane of focus underneath the monolayer were counted. […]

[2] = tested on: MM1 hepatocarcinoma cells; assay: Invasion of HUVEC monolayer by MM1 cells; assay type: cell-based, rat; conditions: 1.5 μM LPC; FIG. 14
From the text: as §1, §2
Invasion of MM1 cells of Example 53 was determined and the effect of compounds of the present application in reducing the invasion was determined. For all invasion assays, MM1 cells were pre-stained with 2 μg/ml calcein AM (Invitrogen, USA) for 2 h, rinsed once, and seeded at a density of 5×10^4 cells/well over the monolayers. Tumor cells were left to invade the HUVEC monolayer for 24 h in MCDB-131 complete media containing 1% serum with or without addition of 1.5 μM LPC. MM1 cells were plated on the mesothelial monolayers in 2% fetal bovine serum-supplemented DMEM medium in the presence of 100 units/ml penicillin G and 10 μg/ml streptomycin with or without 1.5 μM LPC (5 μM for the mesothelium cells) and invasion was allowed to proceed for 20 h. The day after MM1 cell seeding, non-invaded tumor cells were removed by repeated five rinses of the HUVEC monolayer (three rinses for the mesothelial monolayers) with PBS (containing Ca^2+ and Mg^2+) followed by fixation with 10% buffered formalin. The number of tumor cells that penetrated the monolayer was photographed under a NIKON TiU inverted microscope using phase-contrast and fluorescence illumination in a minimum of five non-overlapping fields at 100× magnification. The fluorescent images were overlayed on top of the phase contrast images using the Elements BR software (version 3.1x) and the invaded MM1 cells showing the characteristic flattened morphology in the plane of focus underneath the monolayer were counted. […]

breast and colon cancers = conditions: xenograft models, Zhang et al 2009; cited from earlier work

## CCCCCCCCCCCCCc1ccc2cc(CP(=O)(OC)OC)ccc2c1 [Compound 33b, Dimethyl-6-tridecylnaphthalen-2-yl-methylphosphonate]
[1]; with LPC, FIG. 12 panel E
  MM1 cell invasion of the mesothelial monolayer: inhibition
[2]
  LPC-dependent invasion of the HUVEC monolayer: blockage

## LPA bromophosphonate [LPA-BP]
Breast and colon cancers
  metastasis of breast and colon cancers: inhibit the metastasis

## lysophosphatidylcholine [LPC, reference compound]
[1]; FIG. 12d, mesothelial cell layers
  effect of LPC on invasion in the co-culture: increases invasion in a dose-dependent manner
